Reference: US7553969B1, “Substituted phenethylamine derivatives” (Chugai Seiyaku Kabushiki Kaisha, priority 1999, dated 2009)
Where a SMILES comes first, the peptide text is derived from it. [ ]: non-standard residue; d: D form. NMeTyr(3-tBu) = CN[C@@H](Cc1ccc(O)c(C(C)(C)C)c1)C(=O)O; Phe(3,4-F2) = N[C@@H](Cc1ccc(F)c(F)c1)C(=O)O; NMePhe(4-F) = CN[C@@H](Cc1ccc(F)cc1)C(=O)O; Phe(4-F) = N[C@@H](Cc1ccc(F)cc1)C(=O)O; NMetBuAla = CN[C@@H](CC(C)(C)C)C(=O)O; NMeGly(cPr) = CN[C@H](C(=O)O)C1CC1; NMeChg = CN[C@H](C(=O)O)C1CCCCC1; NMeNva = CCC[C@H](NC)C(=O)O; NMeV = CN[C@H](C(=O)O)C(C)C

Tests used:
motilin receptor = biological target: T1, motilin receptor (Oryctolagus cuniculus, UniProt G1T803); assay: Motilin receptor binding test (125I motilin, rabbit duodenum protein sample); conditions: 125I motilin 25 pM, concentration reducing specific binding by 50%
T1 construct: homogenized in 50 mM Tris buffer to prepare a protein sample; from tissue; host or cells: rabbit duodenum homogenate (mucous membrane separated)
Experimental: Motilin receptor binding test
A motilin receptor binding test was conducted in the following manner [Vantrappen et al., Regul. Peptides, 15, 143 (1986)]. The duodenum was extracted from a slaughtered rabbit, had the mucous membrane separated and homogenized in 50 mM Tris buffer to prepare a protein sample. The protein sample was incubated together with ^125I motilin 25 pM and thereafter the radioactivity bound to the protein was measured. Specific binding was defined as the difference between the radioactivity in the case of adding a great excess amount of motilin (10^−7 M) and that in the case of no adding. The activity of the compound was expressed by IC50 (in nM), as the concentration sufficient to reduce the specific binding by 50%.

[1] = test system: specimen of longitudinal muscle in the duodenum extracted from a rabbit (motilin-induced contraction); assay: Action on the motilin-induced contraction of a specimen of longitudinal muscle in the duodenum extracted from a rabbit; conditions: organ bath, Krebs solution 28° C.; for Kb: Oryctolagus cuniculus, read-out: Contraction suppressing test, pA2 (converted)
Experimental: Action on the Contraction of a Specimen of Longitudinal Muscle in the Duodenum Extracted from a Rabbit
The action on the motilin-induced contraction of a specimen of longitudinal muscle in the duodenum extracted from a rabbit was investigated by the following method. A duodenum specimen (5×15 mm) extracted from a slaughtered rabbit was suspended in an organ bath (10 ml) such that the longitudinal muscle would run vertically; the bath was filled with a Krebs solution kept at 28° C. A mixed gas (95% O2 and 5% CO2) was continuously bubbled into the Krebs solution and the contraction of the duodenum specimen was recorded isotonically (with a 1-g load) via an isotonic transducer (ME-3407, ME Commercial, Tokyo, Japan). The degree of contraction was expressed in relative values, with the contraction by acetylcholine at a dose of 10^−4 M being taken as 100%. The activity of the compound was calculated as pA2 value indicating its effect on the dose-dependent muscle contraction by the motilin put into the organ bath.

T1 sequence (G1T803 1-400): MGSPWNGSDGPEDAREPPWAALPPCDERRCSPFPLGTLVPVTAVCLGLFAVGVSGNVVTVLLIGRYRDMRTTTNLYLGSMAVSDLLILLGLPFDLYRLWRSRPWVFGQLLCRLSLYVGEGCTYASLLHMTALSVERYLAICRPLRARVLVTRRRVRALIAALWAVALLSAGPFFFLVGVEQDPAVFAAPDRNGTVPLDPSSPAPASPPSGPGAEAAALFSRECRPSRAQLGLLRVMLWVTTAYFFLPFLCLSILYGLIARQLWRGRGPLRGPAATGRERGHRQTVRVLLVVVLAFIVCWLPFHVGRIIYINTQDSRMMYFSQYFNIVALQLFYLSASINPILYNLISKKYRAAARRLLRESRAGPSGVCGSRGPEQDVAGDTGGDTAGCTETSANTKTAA

| SMILES | IC50 (motilin receptor) [nM] | Kb [1] [nM] | Contraction suppressing test, pA2 [1] |
| --- | --- | --- | --- |
| CN(C(=O)[C@@H](N)Cc1ccc(F)cc1)[C@H](C(=O)N(C)[C@@H](Cc1ccc(O)c(C(C)(C)C)c1)C(N)=O)C1CC1 [Example 165, Phe(4-F)-N-Me-Ala(β-c-Pr)-N-Me-Tyr(3-tBu)-NH2] (H-[Phe(4-F)]-[NMeGly(cPr)]-[NMeTyr(3-tBu)]-NH2) | 2.8 | 6.31 | – |
| CC(C)[C@@H](C(=O)N(C)[C@@H](Cc1ccc(O)c(C(C)(C)C)c1)C(=O)N1CCN(S(C)(=O)=O)CC1)N(C)C(=O)[C@@H](N)Cc1ccc(F)cc1 [Example 134, (2S)-2-[(2S)-2-amino-3-(4-fluorophenyl)-N-methylpropanolyamino]-N-((1S)-1-{[3-(tert-butyl)-4-hydroxyphenyl]methyl}-2-[4-(methylsulfonyl)piperazinyl]-2-oxoethyl)-3-methyl-N-methylbutanamide] | 1.5 | 5.01 | – |
| CN(C(=O)[C@@H](N)Cc1ccc(F)cc1)[C@@H](Cc1ccc(F)cc1)C(=O)N(C)[C@@H](Cc1ccc(O)c(C(C)(C)C)c1)C(N)=O [Example 157, Phe(4-F)-N-Me-Phe(4-F)-N-Me-Tyr(3-tBu)-NH2] (H-[Phe(4-F)]-[NMePhe(4-F)]-[NMeTyr(3-tBu)]-NH2) | 6.1 | 7.94 | – |
| CCN[C@@H](Cc1ccc(F)cc1)C(=O)N(C)[C@H](C(=O)N(CC)[C@@H](Cc1ccc(O)c(C(C)(C)C)c1)C(=O)NC)C(C)C [Example 44, N-Et-Phe(4-F)-N-Me-Val-N-Et-Tyr(3-tBu)-NHMe] | 3.6 | 3.16 | – |
| CCN(C(=O)[C@H](C(C)C)N(C)C(=O)[C@@H](N)Cc1ccc(F)cc1)[C@@H](Cc1ccc(O)c(C(C)(C)C)c1)C(N)=O [Example 39, Phe(4-F)-N-Me-Val-N-Et-Tyr(3-tBu)-NH2] | 2 | 2 | – |
| CCN[C@@H](Cc1ccc(F)cc1)C(=O)N(C)[C@H](C(=O)N(C)[C@@H](Cc1ccc(O)c(C(C)(C)C)c1)C(N)=O)C(C)C [Example 35, N-Et-Phe(4-F)-N-Me-Val-N-Me-Tyr(3-tBu)-NH2] | 1.7 | 1.58 | – |
| CCN[C@@H](Cc1ccc(F)cc1)C(=O)N(C)[C@H](C(=O)N(CC)[C@@H](Cc1ccc(O)c(C(C)(C)C)c1)C(=O)NCO)C(C)C [Example 129, N-Et-Phe(4-F)-N-Me-Val-N-Et-Tyr(3-tBu)-NHCH2OH] | 4 | 3.16 | – |
| CN(C(=O)[C@@H](N)Cc1ccc(F)cc1)[C@@H](CC(C)(C)C)C(=O)N(C)[C@@H](Cc1ccc(O)c(C(C)(C)C)c1)C(N)=O [Example 148, Phe(4-F)-N-Me-Leu(γ-Me)-N-Me-Tyr(3-tBu)-NH2] (H-[Phe(4-F)]-[NMetBuAla]-[NMeTyr(3-tBu)]-NH2) | 4.1 | 3.98 | – |
| CC(C)C(C(=O)N(C)C(Cc1ccc(O)c(C(C)(C)C)c1)C(=O)NCS(C)(=O)=O)N(C)C(=O)C(N)Cc1ccc(F)cc1 (stereo not shown) [Example 64, Phe(4-F)-N-Me-Val-N-Me-Tyr(3-tBu)-NHCH2SO2CH3] | 1 | – | 9.0 |
| CC(C)[C@@H](C(=O)N(C)[C@@H](Cc1ccc(O)c(C(C)(C)C)c1)C(N)=O)N(C)C(=O)[C@@H](N)Cc1ccc(F)c(F)c1 [Example 3, Phe(3,4-F2)-N-Me-Val-N-Me-Tyr(3-tBu)-NH2] (H-[Phe(3,4-F2)]-[NMeV]-[NMeTyr(3-tBu)]-NH2) | 1.5 | 2 | – |
| CCN[C@@H](Cc1ccc(F)cc1)C(=O)N(C)[C@H](C(=O)N(C)[C@@H](Cc1ccc(O)c(C(C)(C)C)c1)C(=O)NC)C(C)C [Example 38, N-Et-Phe(4-F)-N-Me-Val-N-Me-Tyr(3-tBu)-NHMe] | 3 | 6.31 | – |
| CC(C)[C@@H](C(=O)N[C@@H](Cc1ccc(O)c(C(C)(C)C)c1)c1nnc[nH]1)N(C)C(=O)[C@@H](N)Cc1ccc(F)cc1 [Example 24, 2-((2-amino-3-(4-fluorophenyl)propionyl)-N-methylamino)-3-methylbutyric acid 2-(3-t-butyl-4-hydroxyphenyl)-1-(1,3,4-triazol-2-yl)ethylamide] | 0.94 | 0.794 | – |
| CCN(C(=O)[C@H](C(C)C)N(C)C(=O)[C@@H](N)Cc1ccc(F)cc1)[C@@H](Cc1ccc(O)c(C(C)(C)C)c1)C(=O)NC [Example 42, Phe(4-F)-N-Me-Val-N-Et-Tyr(3-tBu)-NHMe] | 1.2 | 5.01 | – |
| CCN[C@@H](Cc1ccc(F)cc1)C(=O)N(C)[C@H](C(=O)N[C@@H](Cc1ccc(O)c(C(C)(C)C)c1)C(=O)NCO)C(C)C [Example 124, N-Et-Phe(4-F)-N-Me-Val-Tyr(3-tBu)-NHCH2OH] | 0.98 | 0.794 | – |
| CC(C)[C@@H](C(=O)N[C@H](CNS(C)(=O)=O)Cc1ccc(O)c(C(C)(C)C)c1)N(C)C(=O)[C@@H](N)Cc1ccc(F)cc1 [Example 14, N-[2-(3-tert-butyl-4-hydroxyphenyl)-1-(methanesulfonylaminomethyl)ethyl]-2-[N-(4-fluorophenylalaminoyl)methylamino]-3-methylbutanamide] | 0.7 | 0.501 | – |
| CN[C@@H](Cc1ccc(F)cc1)C(=O)N(C)[C@H](C(=O)N(C)[C@@H](Cc1ccc(O)c(C(C)(C)C)c1)C(N)=O)C(C)C [Example 34, N-Me-Phe(4-F)-N-Me-Val-N-Me-Tyr(3-tBu)-NH2] (H-[NMePhe(4-F)]-[NMeV]-[NMeTyr(3-tBu)]-NH2) | 1.5 | 0.398 | – |
| Cc1cc(=O)[nH]c([C@H](Cc2ccc(O)c(C(C)(C)C)c2)NC(=O)[C@H](C(C)C)N(C)C(=O)[C@@H](N)Cc2ccc(F)cc2)n1 (single isomer, unassigned) [Example 19, 2-(1-(2-((2-amino-3-(4-fluorophenyl)propionyl)-N-methylamino)-3-methyl-butyrylamino)-2-(3-tert-butyl-4-hydroxyphenyl)ethyl)-6-methyl-4-pyrimidinone] | 2.2 | 2 | – |
| CCC[C@@H](C(=O)N(C)[C@@H](Cc1ccc(O)c(C(C)(C)C)c1)C(N)=O)N(C)C(=O)[C@@H](N)Cc1ccc(F)cc1 [Example 140, Phe(4-F)-N-Me-Nva-N-Me-Tyr(3-tBu)-NH2] (H-[Phe(4-F)]-[NMeNva]-[NMeTyr(3-tBu)]-NH2) | 4 | 6.31 | – |

Further molecules by falling IC50 (motilin receptor), results first:

| IC50 (motilin receptor) [nM] | SMILES | Kb [1] [nM] | Contraction suppressing test, pA2 [1] |
| --- | --- | --- | --- |
| 0.7 | CN[C@@H](Cc1ccc(F)cc1)C(=O)N(C)[C@H](C(=O)N[C@@H](Cc1ccc(O)c(C(C)(C)C)c1)C(=O)NCO)C(C)C [Example 123, N-Me-Phe(4-F)-N-Me-Val-Tyr(3-tBu)-NHCH2OH] | 0.794 | – |
| 0.62 | CCNC(=O)[C@H](Cc1ccc(O)c(C(C)(C)C)c1)N(C)C(=O)[C@H](C(C)C)N(C)C(=O)[C@H](Cc1ccc(F)cc1)NCC [Example 106, N-Et-Phe(4-F)-N-Me-Val-N-Me-Tyr(3-tBu)-NHEt] | 0.158 | – |
| 0.6 | CNC(=O)[C@H](Cc1ccc(O)c(C(C)(C)C)c1)N(C)C(=O)[C@H](C(C)C)N(C)C(=O)[C@H](Cc1ccc(F)cc1)NC [Example 37, N-Me-Phe(4-F)-N-Me-Val-N-Me-Tyr(3-tBu)-NHMe] (H-[NMePhe(4-F)]-[NMeV]-[NMeTyr(3-tBu)]-NHMe) | 1.58 | – |
| 0.41 | CC(C)[C@@H](C(=O)N[C@@H](Cc1ccc(O)c(C(C)(C)C)c1)CS(C)(=O)=O)N(C)C(=O)[C@@H](N)Cc1ccc(F)cc1 [Example 16, 2-((2-amino-3-(4-fluorophenyl)propionyl)-N-methylamino)-3-methylbutyric acid 2-(3-t-butyl-4-hydroxyphenyl)-1-methanesulfonylmethylethylamide] | 0.398 | – |
| 0.41 | CC(C)[C@@H](C(=O)N(C)[C@@H](Cc1ccc(O)c(C(C)(C)C)c1)C(=O)NC1CC1)N(C)C(=O)[C@@H](N)Cc1ccc(F)cc1 [Example 121, Phe(4-F)-N-Me-Val-N-Me-Tyr(3-tBu)-NH-c-Pr] | 1.26 | – |
| 0.36 | CN(C(=O)[C@@H](N)Cc1ccc(F)cc1)[C@H](C(=O)N(C)[C@@H](Cc1ccc(O)c(C(C)(C)C)c1)C(N)=O)C1CCCCC1 [Example 151, Phe(4-F)-N-Me-Chg-N-Me-Tyr(3-tBu)-NH2] (H-[Phe(4-F)]-[NMeChg]-[NMeTyr(3-tBu)]-NH2) | 6.31 | – |
| 0.31 | CCNC(=O)[C@H](Cc1ccc(O)c(C(C)(C)C)c1)N(C)C(=O)[C@H](C(C)C)N(C)C(=O)[C@H](Cc1ccc(F)cc1)NC [Example 105, N-Me-Phe(4-F)-N-Me-Val-N-Me-Tyr(3-tBu)-NHEt] (H-[NMePhe(4-F)]-[NMeV]-[NMeTyr(3-tBu)]-NHEt) | 0.158 | – |
| 0.27 | CC(C)[C@@H](C(=O)N[C@@H](Cc1ccc(O)c(C(C)(C)C)c1)c1nnco1)N(C)C(=O)[C@@H](N)Cc1ccc(F)cc1 [Example 21, 2-((2-amino-3-(4-fluorophenyl)propionyl)-N-methylamino)-3-methylbutyric acid 2-(3-t-butyl-4-hydroxyphenyl)-1-(1,3,4-oxadiazol-2-yl)ethylamide] | 0.158 | – |
